Results from US20240110220A1, “DETECTING BETA-LACTAMASE ENZYME ACTIVITY” (COMMISSARIAT A L'ENERGIE ATOMIQUE ET AUX ENERGIES …, priority 2021, published 2024).

Assay: Test strip by competition with hydrolysed cefotaxime added to the sample
Type: binding
Settings: signal equivalent to the control
Description: The optimisation of these two parameters was carried out for the five antibodies selected. […] In parallel, hydrolysed cefotaxime was added in order to check that the antibody is indeed specific to the non-hydrolysed form.
For all these three parameters, a colour intensity scale was used to evaluate the results obtained on the test strips. This scale was defined from 1 to 10, where each value is characteristic of an increasing signal intensity.
96-well microplates were used for all these tests. […] Then, a strip composed of a sample paper, a nitrocellulose membrane and an absorbent paper, were deposited in the wells. An incubation of 10 minutes was performed, then the signal intensity was evaluated with the colour intensity scale.
A control was produced (condition at 0 ng/ml), in order to see the maximum signal that could be obtained on the TL (Table 4).
By way of example, other antibodies have been tested. The conditions of use of the antibodies are as follows: Antibody 1, DO0.5, 0.3 mg/ml of BSA-cefotaxime; Antibody 2, DO1, 0.3 mg/ml of BSA-cefotaxime; Antibody 3, DO0.5, 0.1 mg/ml of BSA-cefotaxime; Antibody 4, DO0.5, 0.3 mg/ml of BSA-cefotaxime; Antibody 5, DO0.5, 0.3 mg/ml of BSA-cefotaxime (Table 5).

In the case of CO/N=C(\C(=O)N[C@H](C(=O)O)C1NC(C(=O)O)=C(COC(C)=O)CS1)c1csc(N)n1 (stereo partly shown) [hydrolysed cefotaxime], the “recognition by the tracer antibody” value is reported as “not recognised”.
